# Assay results: patent US20230416247A1, “DRUG-LIKE MOLECULES AND METHODS FOR THE THERAPEUTIC TARGETING OF MICRORNA-21” (University of Washington, priority 2020, published 2023)
# Where two headings read alike, the source gives them in different places.
# Legend:
# [1] = system: mature miR-10b in ASPC1 cells; test: qRT-PCR of mature miR-10b in ASPC1 cells; assay type: cell-based, human; conditions: ASPC1, 10 nmoles, 48 hours, relative to DMSO control
# Procedure: FIGS. 14A-14D compare levels of mature miR-10b and pre-miR-10b measured in gastric adenocarcinoma (AGS) (FIGS. 14A and 14B, respectively) and pancreatic cancer cell line (ASPC 1) (FIGS. 14C and 14D, respectively), normalized to internal controls (U6 or U8 snRNA), in the presence of 10 nmoles of palbociclib (a negative control not expected to directly affect miRNA levels) and compounds −0045 and −0052, 48 hours after incubation, relative to DMSO control, and measured by standard qRT-PCR. We notice that levels of pre-miR-10b are very low in both cell lines, rendering the data very uncertain. Statistically significant changes are labeled with asterisks.
# In order to investigate whether inhibition was specific to miR-21, levels of mature miR-10b and pre-miR-10b were examined in the same cell lines (FIGS. 14A-14D); this is another oncogenic microRNA implicated in metastasis. […]
# Quantitative real time PCR analysis. […] RNA concentration was assessed with the NanoDrop ND-1000 spectrophotometer (ThermoFisher Scientific). […] Expression of miR-21 was assessed utilizing the TaqMan microRNA assay (Applied Biosystems). […] All experiments were performed in triplicate, with all samples normalized to the internal controls and relative expression levels calculated using the 2^ΔΔCt method.
# [2] = system: mature miR-21 and pre-miR-21 in ASPC1 cells; test: qRT-PCR of mature miR-21 and pre-miR-21 in ASPC1 cells; assay type: cell-based, human; conditions: ASPC1, 10 nmoles, 48 hours, relative to DMSO control
# Procedure: FIGS. 13A-13D compare levels of mature miR-21 and pre-mi-21 measured in gastric adenocarcinoma (AGS) (FIGS. 13A and 13B, respectively) and pancreatic cancer cell line (ASPC 1) (FIGS. 13C and 13D, respectively), normalized to internal controls (U6 or U8 snRNA), in the presence of 10 nmoles of palbociclib (used here as a negative control, not expected to affect microRNA levels) and compounds −0045 and −0052, 48 hours after incubation, relative to DMSO control, and measured by standard qRT-PCR. Statistically significant changes are labeled with asterisks.
# Levels of mature miR-21 and its precursor pre-miR-21 were measured in gastric carcinoma (ASG) and pancreatic (ASPC1) cancer cell lines under conditions where we observed a decrease in proliferation (FIGS. 13A-13D), using the same blind format described above.
# Cell line maintenance. Using the Cancer Cell Line Encyclopedia (CCLE), in-house cancer cell lines were screened to identify cancer and tissue types with varying levels of miR-21 expression. Experiments were performed using the human-derived cell lines AGS (gastric cancer) and AsPC-1 (pancreatic cancer). Cell lines were obtained from the American Type Culture Collection and maintained per instructions from the supplier. AGS were cultured in F12K medium supplemented with 10% FBS. AsPC-1 were cultured in RPMI, with 10% FBS added. All cells were kept at 37° C. in a humidified atmosphere of 5% CO2 and underwent regular mycoplasma testing. All experiments were conducted when cells were 70-80% confluent.
# Quantitative real time PCR analysis. RNA was isolated utilizing Trizol (Invitrogen) and the Direct-zol RNA Miniprep kit (Zymo Research). RNA concentration was assessed with the NanoDrop ND-1000 spectrophotometer (ThermoFisher Scientific). All microRNAs expression was tested in the two representative cell lines using qRT-PCR. Cells were seeded in 6-well plates 24 hours before treatment, at a cell confluency of 50-60%. Each cell line was treated with 10 μM compound or with only the dimethyl sulfoxide (DMSO) solvent. RNA was collected after the 48-hour time point. Expression of miR-21 was assessed utilizing the TaqMan microRNA assay (Applied Biosystems). The complementary DNA (cDNA) was synthesized using the TaqMan Reverse Transcription Reagents kit (Applied Biosystems) and was used with the TaqMan probes and Supermix (BioRad) for qRT-PCR analysis. U6 or U48 were used as internal controls for RNA levels. All experiments were performed in triplicate, with all samples normalized to the internal controls and relative expression levels calculated using the 2^ΔΔCt method.
# [3] = biological target: pre-miR21; test: 1D 1H NMR ligand-detect titration of compounds with pre-miR21 RNA; assay type: binding, human
# Procedure: FIG. 6 compares the binding of representative compounds of the invention (see FIG. 5) to pre-miR21. 1D ^1H NMR ligand-detect titrations of compounds, generated by titrating in increasing concentrations of RNA into a solution containing 100 μM of the relevant compound in buffer containing 50 mM deuterated Tris at pH 6.5, as well as 250 mM NaCl, 50 mM KCl and 2 mM MgCl2. As increasing amounts of compounds are bound to the RNA in the course of the titration, the line width of the NMR signal increases, and the NMR peak height decreases. The fraction of compound bound can be calculated from the decrease in […] relative to an internal standard. Saturation of the curves to a value of 1 indicates the predominant presence of a single site with high binding affinity. Approximate binding constants can be calculated by fitting the data points to a binding isotherm. For reference, the data fit for compound −0052 corresponds to a Kd=200 nM, while compound −0045 corresponds to a Kd=600 nM.
# The compounds show a strong pre-miR21 binding capacity.
# RNA Transcription. All RNAs for ligand screening and structural or biochemical work were prepared in house using in vitro transcription on a large scale (typically 10 mL). RNA transcription and purification protocols used purified DNA oligonucleotide templates (IDT) and T7 RNA polymerase. Briefly, 1 mL of 8 μM TOP DNA (5′-CTATAGTGAGTCGTATTA-3′ (SEQ ID NO: 1)), corresponding to the phage T7 RNA polymerase promoter region, was annealed to 80 μL of 100 μM template sequences with 13 mM MgCl2, heated to 95° C. for […] then allowed to anneal to room temperature over 20 min. The annealing mixture was incubated with 5 mM of each of the four NTPs (ATP, GTP, UTP and CTP, from Sigma), transcription buffer, 8% PEG-8000 and 35 mM magnesium chloride with 0.4 mg/mL T7 RNA polymerase expressed and purified using established methods. All RNA samples are purified from crude transcriptions by 20% denaturing polyacrylamide gel electrophoresis (PAGE), electroeluted and concentrated by ethanol precipitation. The samples are re-dissolved in 12 mL of high salt wash (700 mM NaCl, 200 mM KCl, in 10 mM potassium phosphate at pH 6.5, with 10 μM EDTA to chelate any divalent ions), concentrated using Centriprep conical concentrators ([…] MWC, Millipore). The RNA was then slowly exchanged into low salt storage buffer (10 mM potassium phosphate at pH 6.5, with 10 mM NaCl and 10 μM EDTA). Prior to NMR experiments, all RNA samples were finally desalted using NAP-10 gravity columns, lyophilized and re-dissolved in ‘screening buffer’ or ‘structure buffer’ (see below), then annealed by heating for 4 min to 90° C. and snap cooling at −20° C.
# [4] = 100 μM compound, 50 mM deuterated Tris pH 6.5, 250 mM NaCl, 50 mM KCl, 2 mM MgCl2, approximate, read-out: Kd (fit of NMR titration data to binding isotherm)
# [5] = estimated, FIG. 6, read-out: KD for pre-miR21
SMILES,change in levels of mature miR-10b [1],decrease in mature miR-21 levels [2] [%],pre-miR-21 levels [2],"Kd [3, 4] [nM]","Kd [3, 5] [nM]",reduction of levels of mature miR-10b [1]
O=c1[nH]c(Nc2ccc(N3CCNCC3)cn2)nc2cccnc12 [Compound 25],smaller and not statistically significant changes,40,reduction in pre-miR-21 levels,600,600,–
O=c1[nH]c(Nc2ccc(N3CCNCC3)cn2)nc2cnccc12 [Compound 30],–,40,reduction in pre-miR-21 levels,200,200,about 2 fold
